Experiment [1] deals with Pituitary gland cell. The experiment in a line: Effect on LH release in rat pituitary cells after 4 hrs. The format is functional, cell-based.
Experiment [2] in a line: Stimulation of ERK phosphorylation in alphaT3-1 cells. The format is cell-based.

Molecules are shown by their SMILES. Activity calls are given as the source filed them. The calls are words filed in the database; no cut-off is given here.

In the case of `CC(C)C[C@H](NC(=O)[C@@H](CCCCN)NC(=O)[C@H](Cc1ccc(O)cc1)NC(=O)[C@H](CO)NC(=O)[C@H](Cc1c[nH]c2ccccc12)NC(=O)[C@H](Cc1cnc[nH]1)NC(=O)[C@@H]1CCC(=O)N1)C(=O)N[C@@H](CCCNC(=N)N)C(=O)N1CCC[C@H]1C(=O)NCC(N)=O`, the result in experiment [1] and in experiment [2] was Active.

For the molecule `Cc1c(C(=O)NCCC(=O)NCCCC[C@@H](NC(=O)[C@H](Cc2ccc(O)cc2)NC(=O)[C@H](CO)NC(=O)[C@H](Cc2c[nH]c3ccccc23)NC(=O)[C@H](Cc2cnc[nH]2)NC(=O)[C@@H]2CCC(=O)N2)C(=O)N[C@@H](CC(C)C)C(=O)N[C@@H](CCCNC(=N)N)C(=O)N2CCC[C@H]2C(=O)NCC(N)=O)c(O)cc2c1C(=O)c1c(O)c([C@H]3O[C@H](CO)[C@@H](O)[C@H](O)[C@H]3O)c(O)c(O)c1C2=O`, the result in experiment [1] and in experiment [2] was Active.

The record behind these values is ChEMBL document CHEMBL1155061, “Conjugates of gonadotropin releasing hormone (GnRH) with carminic acid: Synthesis, generation of reactive oxygen species (ROS) and biological evaluation” (Bioorg Med Chem, 2008).
